The values below come from patent US20150136167A1, “METHOD OF TREATING HAIR” (priority 2012, published 2015).

Data set [1] can be described thus: Solubility of actives at the 5% level. In kind it is physicochemical.
A short description of data set [2]: Hair straightening on dry hair switches (volume of switch image), Experiments 1 and 4. The procedure:
Dark brown European wavy#6 switches of length 25 cm and weight 2 gms, were dosed with 2 ml each of 5% citric acid solutions at various pH's. They were combed straight and left to dry for at least 20 minutes. They were subsequently rinsed for 30 seconds under the tap. They were then combed straight and left to dry overnight. When dry the switches were combed straight and pictures taken. […] (Here volume refers to the projection of the switch image on to the screen and is given in mm^2).

A short description of data set [3]: Hair straightening with application to wet hair, Experiment 3.
[4] abbreviates: 5% solution at pH 2, 2 ml dosed on dry switch, left at least 20 min, rinsed, combed, dried overnight.
The mark [5] stands for this setting: 5% solution at pH 2, dosed on dry switch.
Where [6] appears, read: 5% solution at pH 3, dosed on dry switch.
Setting [7] is: 5% solution at pH 4, dosed on dry switch.
Where [8] appears, read: 5% solution at pH 5, dosed on dry switch.
Setting [9] is: 5% solution at pH 6, dosed on dry switch.

In the case of `O=C(O)/C=C/C(=O)O` [Fumaric acid], in data set [1], the “solubility at the 5% level” value is listed as “not soluble at the 5% level”.
In the case of `O=C(O)CC(O)C(=O)O` (stereo not drawn) [Malic acid], in data set [2] (setting [4]), the “Volume in mm^2” value was found to be 12426 mm^2. Also, in data set [2] (setting [5]), the “% benefit over water” value came to 13.0%.
Consider `O=C(O)CC(=O)O` [Malonic acid], for which the “Volume in mm^2” value is on record as 11220 mm^2 in data set [2] (setting [4]) and 11950 mm^2 in data set [2] (setting [6]). In addition, the “% benefit over water” value was 21.4% in data set [2] (setting [5]) and 16.3% in data set [2] (setting [6]).
Regarding `O=C(O)C(O)c1ccccc1` (stereo not drawn) [Mandelic acid, reference compound], the “Volume in mm^2” value in data set [2] (setting [4]) is given as 13545 mm^2. The “% benefit over water” value in data set [2] (setting [5]) stood at 5.1%.
`O=C(O)C(=O)O` [Oxalic acid]: the “Volume in mm^2” value in data set [2] (setting [4]) is recorded as 13419 mm^2. For the same molecule, the “% benefit over water” value in data set [2] (setting [5]) amounted to 6.0%.
`O=C(O)CC(O)(CC(=O)O)C(=O)O` [citric acid]: the “Volume in mm^2” value is given as 9481 mm^2 in data set [2] (setting [4]); 9574 mm^2 in data set [2] (setting [6]); 11717 mm^2 in data set [2] (setting [7]); 10871 mm^2 in data set [2] (setting [8]); 12136 mm^2 in data set [2] (setting [9]). For the same molecule, the “% benefit over water” value in data set [2] (setting [5]) is listed as 33.6%; in data set [2] (setting [6]), 32.9%; in data set [2] (setting [7]), 17.9%; in data set [2] (setting [8]), 23.9%; in data set [2] (setting [9]) it was 15.0%. Besides, the “straightening benefit compared with the results with dry hair” value in data set [3] (5% solution at pH 2 applied to wet hair) and in data set [3] (5% solution at pH 3 applied to wet hair) was “significantly reduced” in each case.
For the molecule `O=C(O)/C=C(\CC(=O)O)C(=O)O` [trans Aconitic acid], the “Volume in mm^2” value in data set [2] (setting [4]) stood at 8456 mm^2; in data set [2] (setting [6]), 11812 mm^2. The “% benefit over water” value in data set [2] (setting [5]) is reported as 40.8%; in data set [2] (setting [6]) it was 17.3%.
